Laboratory results published in PubChem BioAssay AID2060487 (Molecular Pharmacology Branch, DTP, NCI, 2025).

System: 997537-175-T-J1-PDC complex spheroid viability
Assay: Anticancer human tumor 997537-175-T-J1-PDC patient-derived colon adenocarcinoma cell line growth inhibition [GQUAD]
Settings: for IC50: curve of first compound; for viability, T/C: stronger effect = lower value; active = viability on the fitted dose curve at most 10% of control; inactive = the rest
Method in brief: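 Multi-cell-type spheroids of tumor cells with HUVEC and mesenchymal stem cells, treated with drug combinations. Concentrations descend in half-log steps from near clinical Cmax, or from 10 microM where Cmax is unknown; viability read-out.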

[1] = second compound 0.0316 µM, first compound 0.0316 µM
[2] = second compound 0.0316 µM, first compound 0.1 µM
[3] = second compound 0.0316 µM, first compound 0.316 µM
[4] = second compound 0.0316 µM, first compound 1 µM
[5] = second compound 0.0316 µM, first compound 3.16 µM
[6] = second compound 0.0316 µM, first compound 10 µM
[7] = second compound 0.1 µM, first compound 0.0316 µM
[8] = second compound 0.1 µM, first compound 0.1 µM
[9] = second compound 0.1 µM, first compound 0.316 µM
[10] = second compound 0.1 µM, first compound 1 µM
[11] = second compound 0.1 µM, first compound 3.16 µM
[12] = second compound 0.1 µM, first compound 10 µM
[13] = second compound 0.316 µM, first compound 0.0316 µM
[14] = second compound 0.316 µM, first compound 0.1 µM
[15] = second compound 0.316 µM, first compound 0.316 µM
[16] = second compound 0.316 µM, first compound 1 µM
[17] = second compound 0.316 µM, first compound 3.16 µM
[18] = second compound 0.316 µM, first compound 10 µM
[19] = second compound 1 µM, first compound 0.0316 µM
[20] = second compound 1 µM, first compound 0.1 µM
[21] = second compound 1 µM, first compound 0.316 µM
[22] = second compound 1 µM, first compound 1 µM
[23] = second compound 1 µM, first compound 3.16 µM
[24] = second compound 1 µM, first compound 10 µM
[25] = second compound 3.16 µM, first compound 0.0316 µM
[26] = second compound 3.16 µM, first compound 0.1 µM
[27] = second compound 3.16 µM, first compound 0.316 µM
[28] = second compound 3.16 µM, first compound 1 µM
[29] = second compound 3.16 µM, first compound 3.16 µM
[30] = second compound 3.16 µM, first compound 10 µM
[31] = second compound 10 µM, first compound 0.0316 µM
[32] = second compound 10 µM, first compound 0.1 µM
[33] = second compound 10 µM, first compound 0.316 µM
[34] = second compound 10 µM, first compound 1 µM
[35] = second compound 10 µM, first compound 3.16 µM
[36] = second compound 10 µM, first compound 10 µM
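Note: spheroids exposed to the agents for 7 days.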
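Throughout, for viability, T/C: 100% = DMSO vehicle control viability.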

COc1cc(C2c3cc4c(cc3C(OC3OC5COC(C)OC5C(O)C3O)C3COC(=O)C23)OCO4)cc(OC)c1O (stereo not drawn) + Cc1[nH]c2ccc(F)cc2c1-c1nc2c3cccnc3c3ncccc3c2[nH]1
> 10 µM: IC50 (second compound 0.0316 µM) | IC50 (second compound 0.1 µM) | IC50 (second compound 0.316 µM) | IC50 (second compound 1 µM) | IC50 (second compound 3.16 µM) | IC50 (second compound 10 µM)
inactive: viability, T/C [1] 105% | viability, T/C [2] 90% | viability, T/C [3] 102% | viability, T/C [4] 64.1% | viability, T/C [5] 109% | viability, T/C [6] 53.6% | viability, T/C [7] 99% | viability, T/C [8] 75.9% | viability, T/C [9] 89% | viability, T/C [10] 88.3% | viability, T/C [11] 90.8% | viability, T/C [12] 75.3% | viability, T/C [13] 96.4% | viability, T/C [14] 64.1% | viability, T/C [15] 91.1% | viability, T/C [16] 84.5% | viability, T/C [17] 91% | viability, T/C [18] 76.8% | viability, T/C [19] 89.8% | viability, T/C [20] 77.2% | viability, T/C [21] 88.5% | viability, T/C [22] 84.8% | viability, T/C [23] 67.7% | viability, T/C [24] 53.1% | viability, T/C [25] 88.5% | viability, T/C [26] 71% | viability, T/C [27] 85.8% | viability, T/C [28] 75.7% | viability, T/C [29] 98.6% | viability, T/C [30] 72.4% | viability, T/C [31] 84.8% | viability, T/C [32] 92.7% | viability, T/C [33] 78.6% | viability, T/C [34] 81% | viability, T/C [35] 86% | viability, T/C [36] 65.2%

CCCS(=O)(=O)Nc1ccc(F)c(C(=O)c2c[nH]c3ncc(-c4ccc(Cl)cc4)cc23)c1F + Cc1[nH]c2ccc(F)cc2c1-c1nc2c3cccnc3c3ncccc3c2[nH]1
1.47 µM: IC50 (second compound 10 µM)
8.05 µM: IC50 (second compound 0.316 µM)
1.92 µM: IC50 (second compound 1 µM)
5.6 µM: IC50 (second compound 0.1 µM)
2.03 µM: IC50 (second compound 3.16 µM)
5.74 µM: IC50 (second compound 0.0316 µM)
inactive: viability, T/C [1] 88.8% | viability, T/C [2] 107% | viability, T/C [3] 97.9% | viability, T/C [4] 70.1% | viability, T/C [5] 71.5% | viability, T/C [6] 34.4% | viability, T/C [7] 101% | viability, T/C [8] 105% | viability, T/C [9] 90% | viability, T/C [10] 94.1% | viability, T/C [11] 71.6% | viability, T/C [12] 27.5% | viability, T/C [13] 102% | viability, T/C [14] 101% | viability, T/C [15] 97.1% | viability, T/C [16] 69.2% | viability, T/C [17] 83.5% | viability, T/C [18] 41.8% | viability, T/C [19] 98.2% | viability, T/C [20] 97.4% | viability, T/C [21] 101% | viability, T/C [22] 73.4% | viability, T/C [23] 33.1% | viability, T/C [24] 30.7% | viability, T/C [25] 86% | viability, T/C [26] 81% | viability, T/C [27] 88% | viability, T/C [28] 72.8% | viability, T/C [29] 35.4% | viability, T/C [30] 16.5% | viability, T/C [31] 72.4% | viability, T/C [32] 82.5% | viability, T/C [33] 71.8% | viability, T/C [34] 63.3% | viability, T/C [35] 17.7% | viability, T/C [36] 28.9%

CC1COCCN1c1cc(C2(O)CC3CCC(C2)O3)c2cnn(-c3ccn[nH]3)c2n1 (stereo not drawn) + Cc1cnc(CNC(=O)c2c(=O)c3ccc(N4CCCN(C)CC4)nc3n3c2sc2ccccc23)cn1
0.081 µM: IC50 (second compound 0.316 µM)
< 0.0316 µM: IC50 (second compound 0.1 µM) | IC50 (second compound 1 µM)
inactive: viability, T/C [1] 64% | viability, T/C [2] 52.9% | viability, T/C [3] 33.3% | viability, T/C [4] 38.8% | viability, T/C [5] 42.9% | viability, T/C [6] 44.8% | viability, T/C [7] 51.1% | viability, T/C [8] 49% | viability, T/C [9] 37.5% | viability, T/C [10] 27.6% | viability, T/C [11] 41.2% | viability, T/C [12] 58.5% | viability, T/C [13] 53% | viability, T/C [14] 52.3% | viability, T/C [15] 35.7% | viability, T/C [16] 57.1% | viability, T/C [17] 43% | viability, T/C [18] 43.4% | viability, T/C [19] 47.9% | viability, T/C [20] 42.6% | viability, T/C [21] 38.4% | viability, T/C [22] 42.9% | viability, T/C [23] 62.7% | viability, T/C [24] 28.6% | viability, T/C [25] 48.6% | viability, T/C [26] 56.9% | viability, T/C [27] 62.7% | viability, T/C [28] 41.8% | viability, T/C [29] 54.2% | viability, T/C [30] 53% | viability, T/C [31] 59.5% | viability, T/C [32] 63.1% | viability, T/C [33] 55.8% | viability, T/C [34] 53.9% | viability, T/C [35] 53.1% | viability, T/C [36] 42.4%
> 10 µM: IC50 (second compound 3.16 µM)
0.0848 µM: IC50 (second compound 0.0316 µM)
3.61 µM: IC50 (second compound 10 µM)

Cc1cccc(N(C)C(=O)C2C(O)CCN2c2nc(C)cc(C(F)(F)F)c2C#N)c1 (stereo not drawn) + CN(C)c1ccc(Nc2c3ccc(NC(=O)CCN4CCCC4)cc3nc3cc(NC(=O)CCN4CCCC4)ccc23)cc1
inactive: viability, T/C [1] 97.8% | viability, T/C [2] 101% | viability, T/C [3] 101% | viability, T/C [4] 80.2% | viability, T/C [5] 85.4% | viability, T/C [6] 105% | viability, T/C [7] 91.5% | viability, T/C [8] 85.9% | viability, T/C [9] 87.7% | viability, T/C [10] 70.3% | viability, T/C [11] 103% | viability, T/C [12] 89.7% | viability, T/C [13] 83.8% | viability, T/C [14] 85.7% | viability, T/C [15] 81.4% | viability, T/C [16] 77.7% | viability, T/C [17] 89.2% | viability, T/C [18] 104% | viability, T/C [19] 84.9% | viability, T/C [20] 61.3% | viability, T/C [21] 83.2% | viability, T/C [22] 81.2% | viability, T/C [23] 104% | viability, T/C [24] 85.3% | viability, T/C [25] 61.4% | viability, T/C [26] 91.3% | viability, T/C [27] 77% | viability, T/C [28] 93.8% | viability, T/C [29] 103% | viability, T/C [30] 103% | viability, T/C [31] 72.5% | viability, T/C [32] 83.9% | viability, T/C [33] 106% | viability, T/C [34] 88.9% | viability, T/C [35] 106% | viability, T/C [36] 103%
> 10 µM: IC50 (second compound 0.0316 µM) | IC50 (second compound 0.1 µM) | IC50 (second compound 0.316 µM) | IC50 (second compound 1 µM) | IC50 (second compound 3.16 µM) | IC50 (second compound 10 µM)
